Some results are limits rather than exact numbers.

The experiment has as its target T1, human somatostatin receptor subtype 2 (Homo sapiens, UniProt P30874).
T1 construct: expressed in transfected cells
The experiment in a line: cAMP functional assay for SSTR2 agonists. Particulars: inhibition of cAMP activities via human SST2 receptor (SSTR2), CHO-K1 cells; read-out: EC50. In kind it is cell-based. An excerpt:
General overview: All five SSTR subtypes are Gi coupled G-protein coupled receptors (GPCRs) that lead to decreases in intracellular cyclic AMP (cAMP) when activated by an agonist. Therefore, measurement of intracellular cAMP levels can be used to assess whether compounds of the invention are agonists of SSTR subtypes (John Kelly, Troy Stevens, W. Joseph Thompson, and Roland Seifert, Current Protocols in Pharmacology, 2005, 2.2.1-2.2). One example of an intracellular cAMP assay is described below. cAMP assay protocol:
Four days prior to the assay, 5,000 Chinese hamster ovary cells (CHO-K1, ATCC #CCL-61) stably expressing the human somatostatin receptor subtype 2 are plated in each well of a 96-well tissue culture-treated plate in Ham's F12 growth media (ThermoFisher #10-080-CM) supplemented with 10% donor bovine serum (Gemini Bio-Products #100-506), 100 U/mL penicillin; 100 ug/mL streptomycin; 2 mM L-glutamine (Gemini Bio-Products #400-110) and 0.2 mg/mL hygromycin B (GoldBio #31282-04-9). The cells are cultured at 37° C., 5% CO2 and 95% humidity. On the day of the assay, the media is aspirated and the cells are treated with 50 μL of 1.6 μM NKH477 (Sigma #N3290) plus various dilutions of compounds of the invention in assay buffer [1× Hank's Balanced Salt Solution (ThermoFisher #SH3058802), 0.5 mM HEPES pH 7.4, 0.1% bovine serum albumin, 0.2 mM 3-Isobutyl-1-methylxanthine (IBMX, VWR #200002-790)]. The cells are incubated for 20 minutes at 37° C. […] The cells are treated with 50 μL of lysis buffer (HRTF cAMP kit, Cisbio). The lysate is transferred to 384-well plates and cAMP detection and visualization antibodies are added and incubated for 1-24 hours at room temperature. The time-resolved fluorescent signal is read with a Tecan M1000Pro multiplate reader. The intracellular cAMP concentrations are calculated by regression to a standard curve and are plotted vs. the concentration of the compounds of the invention and the EC50 of the compounds are calculated using standard methods. All data manipluations are in GraphPad Prism v6.

T1 sequence (P30874 whole entry): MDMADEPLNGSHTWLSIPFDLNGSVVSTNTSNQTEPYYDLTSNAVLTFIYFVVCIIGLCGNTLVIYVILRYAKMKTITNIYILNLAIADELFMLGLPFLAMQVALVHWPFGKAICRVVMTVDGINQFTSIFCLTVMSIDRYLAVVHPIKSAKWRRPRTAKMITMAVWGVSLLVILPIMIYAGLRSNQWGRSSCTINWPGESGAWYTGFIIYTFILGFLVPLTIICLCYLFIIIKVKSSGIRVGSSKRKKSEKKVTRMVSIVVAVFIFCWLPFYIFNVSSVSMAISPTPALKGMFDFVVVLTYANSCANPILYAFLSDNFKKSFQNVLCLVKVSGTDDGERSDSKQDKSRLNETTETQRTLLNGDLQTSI

Regarding `Cc1cc(F)cc(-c2cnc(N)c(-c3cc4ccc(C#N)cc4[nH]3)c2N2CCC(N)CC2)c1` [Compound 1-33, 2-[2-amino-4-(4-aminopiperidin-1-yl)-5-(3-fluoro-5-methylphenyl)pyridin-3-yl]-1H-indole-6-carbonitrile], the EC50 (as a rule, the concentration at which the effect is half-maximal) was less than 10 nM.

Consider `C#Cc1ccc2[nH]c(-c3c(N)ncc(-c4cc(C)cc(F)c4)c3N3CCC(N)CC3)nc2c1` [Compound 1-65, 4-(4-aminopiperidin-1-yl)-3-(5-ethynyl-1H-1,3-benzodiazol-2-yl)-5-(3-fluoro-5-methylphenyl)pyridin-2-amine], for which the concentration for a half-maximal effect (EC50) is less than 10 nM.

Regarding `COc1ncc(-c2cc(C)cc(Cl)c2)c(N2CCC(N)CC2)c1/C=N/OC(C)(C)C` [Compound 2-12, 1-{3-[(1E)-[(tert-butoxy)imino]methyl]-5-(3-chloro-5-methylphenyl)-2-methoxypyridin-4-yl}piperidin-4-amine], the EC50 is greater than 100 nM.

As to `CNc1ncc(-c2cc(C)cc(F)c2)c(N2CCC(N)CC2)c1-c1nc2cccc(Cl)c2[nH]1` [Compound 1-72, 4-(4-aminopiperidin-1-yl)-3-(7-chloro-1H-1,3-benzodiazol-2-yl)-5-(3-fluoro-5-methylphenyl)-N-methylpyridin-2-amine], the EC50 is less than 10 nM.

Consider `COc1cc(F)cc2nc(-c3c(N)ncc(-c4cc(F)cc(Cl)c4)c3N3CCC(N)CC3)[nH]c12` [Compound 1-90, 4-(4-aminopiperidin-1-yl)-5-(3-chloro-5-fluorophenyl)-3-(5-fluoro-7-methoxy-1H-1,3-benzodiazol-2-yl)pyridin-2-amine], for which the EC50 is less than 10 nM.

As for `CONC(=O)c1cccc2nc(-c3c(N)ncc(-c4cc(C)cc(F)c4)c3N3CCC(N)CC3)[nH]c12` [Compound 1-17, 2-[2-amino-4-(4-aminopiperidin-1-yl)-5-(3-fluoro-5-methylphenyl)pyridin-3-yl]-N-methoxy-1H-1,3-benzodiazole-7-carboxamide], the EC50 fell in the range of 10 to 100 nM.

For `COc1cc(F)cc2nc(-c3c(N4CC(F)C4)ncc(-c4cccc(F)c4)c3N3CCC(N)CC3)[nH]c12` [Compound 4-9, 1-[3-(5-fluoro-7-methoxy-1H-1,3-benzodiazol-2-yl)-2-(3-fluoroazetidin-1-yl)-5-(3-fluorophenyl)pyridin-4-yl]piperidin-4-amine], the EC50 is less than 10 nM.

Turning to “4-(4-aminopiperidin-1-yl)-5-(3-fluoro-5-methylphenyl)-3-(7-methoxy-1H-1,3-benzodiazol-2-yl)pyridin-2-amine [Compound 1-13]”, the EC50 is less than 10 nM.

For `COc1ncc(-c2cc(C)cc(C#N)c2)c(N2CCC(N)CC2)c1-c1nc2cc(Cl)ccc2[nH]1` [Compound 2-6, 3-[4-(4-aminopiperidin-1-yl)-5-(5-chloro-1H-1,3-benzodiazol-2-yl)-6-methoxypyridin-3-yl]-5-methylbenzonitrile], the EC50 lay in the range of 10 to 100 nM.

Consider `Cc1cc(Cl)cc(-c2cnc(N)c(-c3nc4cc(F)cc(F)c4[nH]3)c2N2CCC(N)CC2)c1` [Compound 1-79, 4-(4-aminopiperidin-1-yl)-5-(3-chloro-5-methylphenyl)-3-(5,7-difluoro-1H-1,3-benzodiazol-2-yl)pyridin-2-amine], for which the EC50 was less than 10 nM.

Turning to `Cc1cc(F)cc(-c2cnc(N)c(-c3nc4cccc(C#N)c4[nH]3)c2N2CCC(N)CC2)c1` [Compound 1-21, 2-[2-amino-4-(4-aminopiperidin-1-yl)-5-(3-fluoro-5-methylphenyl)pyridin-3-yl]-1H-1,3-benzodiazole-7-carbonitrile], the EC50 is less than 10 nM.

Take `CON(C)C(=O)c1ccc2[nH]c(-c3c(N)ncc(-c4cc(C)cc(F)c4)c3N3CCC(N)CC3)nc2c1` [Compound 1-24, 2-[2-amino-4-(4-aminopiperidin-1-yl)-5-(3-fluoro-5-methylphenyl)pyridin-3-yl]-N-methoxy-N-methyl-1H-1,3-benzodiazole-5-carboxamide]: the EC50 was less than 10 nM.

Turning to `Cc1cc(F)cc(-c2cnnc(-c3cc4cc(Cl)ccc4[nH]3)c2N2CCC(N)CC2)c1` [Compound 3-1, 1-[3-(5-chloro-1H-indol-2-yl)-5-(3-fluoro-5-methylphenyl)pyridazin-4-yl]piperidin-4-amine], the half-maximal effective concentration (EC50) was less than 10 nM.

Turning to `CON=Cc1ccc2[nH]c(-c3c(N)ncc(-c4cc(C)cc(F)c4)c3N3CCC(N)CC3)nc2c1` [Compound 1-40, 4-(4-aminopiperidin-1-yl)-5-(3-fluoro-5-methylphenyl)-3-{5-[(methoxyimino)methyl]-1H-1,3-benzodiazol-2-yl}pyridin-2-amine], the EC50 was less than 10 nM.

As for `COc1cc(F)c2[nH]c(-c3c(N)ncc(-c4cc(C)cc(C)c4)c3N3CCC(N)CC3)nc2c1` [Compound 1-84], the EC50 was less than 10 nM.

With `CO[C@@H]1CN(c2c(-c3cc(C)cc(F)c3)cnc(N)c2-c2nc3cc(Cl)ccc3[nH]2)CC[C@H]1N` (relative stereo) [Compound 1-7, 4-[trans-4-amino-3-methoxypiperidin-1-yl]-3-(5-chloro-1H-1,3-benzodiazol-2-yl)-5-(3-fluoro-5-methylphenyl)pyridin-2-amine], the EC50 is less than 10 nM.

Consider `COc1ccc2[nH]c(-c3nncc(-c4cc(C)cc(F)c4)c3N3CCC(N)CC3)cc2c1` [Compound 3-9, 1-[5-(3-fluoro-5-methylphenyl)-3-(5-methoxy-1H-indol-2-yl)pyridazin-4-yl]piperidin-4-amine], for which the EC50 is less than 10 nM.

For the compound `Cc1cc(F)cc(-c2cnnc(-c3[nH]c4cc(C#N)ccc4c3Cl)c2N2CCC(N)CC2)c1` [Compound 3-24, 2-[4-(4-aminopiperidin-1-yl)-5-(3-fluoro-5-methylphenyl)pyridazin-3-yl]-3-chloro-1H-indole-6-carbonitrile], the concentration for a half-maximal effect (EC50) is less than 10 nM.

On to `Cc1cc(F)cc(-c2cnnc(-c3cc4ccc(-c5nn[nH]n5)cc4[nH]3)c2N2CCC(N)CC2)c1` [Compound 3-15, 1-[5-(3-fluoro-5-methylphenyl)-3-[6-(2H-1,2,3,4-tetrazol-5-yl)-1H-indol-2-yl]pyridazin-4-yl]piperidin-4-amine], for which the half-maximal effective concentration (EC50) is greater than 100 nM.

Take `Cc1cc(F)cc(-c2cnnc(-c3cc4ccc(C)cc4[nH]3)c2N2CCC(N)CC2)c1` [Compound 3-16, 1-[5-(3-fluoro-5-methylphenyl)-3-(6-methyl-1H-indol-2-yl)pyridazin-4-yl]piperidin-4-amine]: the EC50 is less than 10 nM.

In the case of `Cc1cc(C)cc(-c2cnc(N)c(-c3nc4cc(Cl)ccc4[nH]3)c2N2CC[C@@H](N)[C@H](C#N)C2)c1` (relative stereo) [Compound 1-41, trans-4-amino-1-[2-amino-3-(5-chloro-1H-1,3-benzodiazol-2-yl)-5-(3,5-dimethylphenyl)pyridin-4-yl]piperidine-3-carbonitrile], the concentration giving a half-maximal response (EC50) was less than 10 nM.

In the case of `COc1ccc2c(Cl)c(-c3nncc(-c4cc(C)cc(F)c4)c3N3CCC(N)CC3)[nH]c2c1` [Compound 3-21, 1-[3-(3-chloro-6-methoxy-1H-indol-2-yl)-5-(3-fluoro-5-methylphenyl)pyridazin-4-yl]piperidin-4-amine], the 50% effective concentration (EC50) was less than 10 nM.

Take `COc1ccc2cc(-c3nncc(-c4cc(C)cc(F)c4)c3N3CCC(N)CC3)[nH]c2c1` [Compound 3-5, 1-[5-(3-fluoro-5-methylphenyl)-3-(6-methoxy-1H-indol-2-yl)pyridazin-4-yl]piperidin-4-amine]: the EC50 is less than 10 nM.

Turning to `N#Cc1cc(F)c2[nH]c(-c3c(N)ncc(-c4cc(F)cc(Cl)c4)c3N3CCC(N)CC3)nc2c1` [Compound 1-85, 2-[2-amino-4-(4-aminopiperidin-1-yl)-5-(3-chloro-5-fluorophenyl)pyridin-3-yl]-7-fluoro-1H-1,3-benzodiazole-5-carbonitrile], the concentration giving a half-maximal response (EC50) is less than 10 nM.

In the case of `Cc1cc(F)cc(-c2cnnc(-c3cc4c(Cl)cccc4[nH]3)c2N2CCC(N)CC2)c1` [Compound 3-6, 1-[3-(4-chloro-1H-indol-2-yl)-5-(3-fluoro-5-methylphenyl)pyridazin-4-yl]piperidin-4-amine], the concentration for a half-maximal effect (EC50) was less than 10 nM.

As for `Nc1ncc(-c2cc(F)cc(Cl)c2)c(N2CCC(N)CC2)c1-c1nc2cc(F)cc(F)c2[nH]1` [Compound 1-77, 4-(4-aminopiperidin-1-yl)-5-(3-chloro-5-fluorophenyl)-3-(5,7-difluoro-1H-1,3-benzodiazol-2-yl)pyridin-2-amine], the EC50 was less than 10 nM.

For `COc1ncc(-c2cc(F)cc(F)c2)c(N2CCC(N)CC2)c1-c1nc2cc(Cl)ccc2[nH]1` [Compound 2-14, 1-[3-(5-chloro-1H-1,3-benzodiazol-2-yl)-5-(3,5-difluorophenyl)-2-methoxypyridin-4-yl]piperidin-4-amine], the EC50 is 10 to 100 nM.

These data come from US11072598B2, “Somatostatin modulators and uses thereof” (CRINETICS PHARMACEUTICALS, INC., priority 2017, dated 2021).
